Reference: patent publication US10981932B2, “Macrocyclic indole derivatives” (Bayer Aktiengesellschaft, priority 2016, dated 2021)
Structures can show the parent of a compound that is named as a salt.

Columns and labels:
SUDHL10 [1] = test: Anti-proliferative effect (CellTiter-Glo, 72 h), SUDHL10; type: cell-based; details: SUDHL10 cells, antiproliferation, median, read-out: Antiproli SUDHL10 [M] (median)
Description: Assessment of the Anti-Proliferative Effect of Compounds in Different Cell Lines
The impact of compounds on the proliferation of different cell lines was assessed using the CellTiter-Glo® Luminescent Cell Viability reagent from Promega (G7573). Of note, SUDHL10 and SUDHL5 (DLBCL), NCI-H929 (Multiple Myeloma), A2780 (ovarian carcinoma) as well as MV-4-11(AML) cells are sensitive to MCL-1 inhibition.
In parallel, cells were plated in a reference (day 0) plate for time zero determination.
Rim wells were excluded. The cells were incubated for 72 h hours in a humidified incubator at 37° C. The day 0 plate was measured by adding 30 μl/well of CTG solution (CellTiter-Glo® Luminescent Cell Viability reagent, Promega G7573) to time zero wells in the reference plate followed by a 10 minutes incubation and luminescence reading at 0.1 ms, using the PHERAstar FS microplate reader (BMG Labtech).
After 72 h incubation, the treated plates were measured in the same way as the day 0 plate mentioned above.

SUDHL5 [2] = test: Anti-proliferative effect (CellTiter-Glo, 72 h), SUDHL5; type: cell-based; details: SUDHL5 cells, antiproliferation, median, read-out: Antiproli SUDHL5 [M] (median)
Summary of the method: (§1)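 72 h compound treatment, 37 °C humidified; CellTiter-Glo added, 10 min incubation, luminescence read; day 0 plate read in parallel for baseline.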

SUDHL10 [3] = test: Induction of cytotoxicity (CellTiter-Glo, 5 h), SUDHL10; details: Homo sapiens, SU-DHL10, 5 h
MCL-1 = MCL-1 (Homo sapiens, UniProt Q07820); test: Protein-protein interaction assay MCL-1/Noxa BH3 peptide (MCL-1 assay), TR-FRET; type: binding; details: MBP-MCL-1 / Noxa BH3-derived peptide, median
Summary of the method: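 IC50 came from a 4-parameter fit of the normalized 665/620 nm TR-FRET ratio (anti-MBP Eu-cryptate/streptavidin-XL665). Compounds (0.1 nM–20 μM, duplicates) were preincubated 10 min at 22 °C with 1 nM MBP-MCL-1 in pH 7 Tris/NaCl/KF buffer, then read after 1 h at 22 °C plus overnight at 4 °C.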

SUDHL5 [4] = test: Induction of cytotoxicity (CellTiter-Glo, 5 h), SUDHL5
A2780 = test: Anti-proliferative effect (CellTiter-Glo, 72 h), A2780; type: cell-based; details: Homo sapiens, A2780, 72 h, A2780 cells, median, read-out: IC50 antiproliferation assay A2780 [M] (median)
Summary of the method: as §1

SUDHL10 [5] = test: Induction of caspase-3/7 activity (Caspase-Glo 3/7), SUDHL10; type: cell-based; details: Homo sapiens, SU-DHL10, 3 h, caspase-3/7 induction, SUDHL10 cells, 3 h treatment; median
Summary of the method: (§2)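 DLBCL lines SUDHL5 and SUDHL10 treated with compounds for 3 h at 37 °C; caspase-3/7 activity read by Caspase-Glo 3/7 luminescence. Medium-only background subtracted; EC50 fitted with bottom fixed at 1 and top fixed at the reference compound's maximal induction.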

SUDHL5 [6] = test: Induction of caspase-3/7 activity (Caspase-Glo 3/7), SUDHL5; type: cell-based; details: caspase-3/7 induction, SUDHL5 cells, 3 h treatment, median
Summary of the method: as §2

[7] = Homo sapiens, SU-DHL-5, 72 h, 72 h
[8] = read-out: Cytotox SUDHL10 [M] (median), SUDHL10 cells, cytotoxicity induction, CellTiter-Glo, 5 h, median
[9] = Homo sapiens, SU-DHL-5, 5 h, read-out: Cytotox SUDHL5 [M] (median), SUDHL5 cells, cytotoxicity induction, CellTiter-Glo, 5 h, median
[10] = Homo sapiens, SU-DHL-5, 72 h, 72 h incubation
[11] = read-out: Cytotox SUDHL10 [M] (median), SUDHL10 cells, cytotoxicity induction, CellTiter-Glo, 5 h incubation, median
[12] = Homo sapiens, SU-DHL-5, 5 h, read-out: Cytotox SUDHL5 [M] (median), SUDHL5 cells, cytotoxicity induction, CellTiter-Glo, 5 h incubation, median

Chain of MCL-1 (Q07820 whole entry): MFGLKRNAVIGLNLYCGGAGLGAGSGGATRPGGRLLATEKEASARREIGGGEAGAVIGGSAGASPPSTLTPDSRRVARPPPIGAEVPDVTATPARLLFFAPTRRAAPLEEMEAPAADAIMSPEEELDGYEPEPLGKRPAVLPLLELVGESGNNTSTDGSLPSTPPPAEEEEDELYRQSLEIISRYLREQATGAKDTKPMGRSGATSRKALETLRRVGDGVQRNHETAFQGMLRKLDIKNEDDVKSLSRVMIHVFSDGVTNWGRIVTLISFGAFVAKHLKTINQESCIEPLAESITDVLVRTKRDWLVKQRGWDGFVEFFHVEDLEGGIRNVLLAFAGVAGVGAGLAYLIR

SMILES	IC50 (SUDHL10 [1]; Homo sapiens, SU-DHL10, 72 h, 72 h)	IC50 (SUDHL5 [2]; [7])	IC50 (SUDHL10 [3]; [8])	IC50 (MCL-1)	IC50 (SUDHL5 [4]; [9])	IC50 (A2780)	EC50 (SUDHL10 [5])	EC50 (SUDHL5 [6]; Homo sapiens, SU-DHL-5, 3 h)	IC50 (SUDHL10 [1]; Homo sapiens, SU-DHL10, 72 h, 72 h incubation)	IC50 (SUDHL5 [2]; [10])	IC50 (SUDHL10 [3]; [11])	IC50 (SUDHL5 [4]; [12])	IC50 (SUDHL10 [1]; 72 h)	IC50 (SUDHL5 [2]; 72 h)	IC50 (SUDHL5 [4]; read-out: Cytotox SUDHL5 [M] (median), SUDHL5 cells, cytotoxicity induction, CellTiter-Glo, 5 h, median)	EC50 (SUDHL5 [6])
Cn1nc(CN2CCCCC2=O)c2c1COCCCCn1c(C(=O)O)c(CCCOc3cccc4ccccc34)c3cccc-2c31 (single isomer, unassigned; enantiomer 1) [Example 326, 1-methyl-7-[3-(naphthalen-1-yloxy)propyl]-3-[(2-oxopiperidin-1-yl)methyl]-1,10,11,12,13,15-hexahydropyrazolo[4′,3′:9,10][1,6]oxazacycloundecino[8,7,6-hi]indole-carboxylic Acid (Enantiomer 1)]	1.14e-05 M	3.18e-05 M	> 3.3e-05 M	0.515 µM	> 3.3e-05 M	> 3.3e-05 M	> 33 µM	> 33 µM								
CCc1c2c(nn1CCN1CCOCC1)COCCCCn1c(C(=O)O)c(CCCOc3cccc4ccccc34)c3cccc-2c31 (racemic) [Example 201, (rac)-3-ethyl-2-[2-(morpholin-4-yl)ethyl]-7-[3-(naphthalen-1-yloxy)propyl]-2,10,11,12,13,15-hexahydropyrazolo[4′,3′:9,10][1,6]oxazacycloundecino[8,7,6-hi]indole-8-carboxylic Acid]				0.00427 µM			8.57 µM	2.53 µM	7.54e-06 M	4.3e-06 M	7.98e-06 M	2.57e-06 M				
COc1ccc(OCc2nn(C)c3c2-c2cccc4c(CCCOc5cccc6ccccc56)c(C(=O)O)n(c24)CCCCOC3)cc1 (single isomer, unassigned; enantiomer 1) [Example 320, 3-[(4-methoxyphenoxy)methyl]-1-methyl-7-[3-(naphthalen-1-yloxy)propyl]-1,10,11,12,13,15-hexahydropyrazolo[4′,3′:9,10][1,6]oxazacycloundecino[8,7,6-hi]indole-8-carboxylic Acid-N-ethylethanamine Salt (Enantiomer 1)]			2.29e-05 M	0.0226 µM		1.41e-05 M							9.36e-06 M	5.43e-06 M	1.1e-05 M	13.8 µM
Cc1ccc2c(C(C)CCOc3cccc4ccccc34)c(C(=O)O)n3c2c1-c1c(nn(C)c1C)COCCCC3 (racemic) [Example 362, 11,12,13-trimethyl-1-(4-(naphthalen-1-yloxy)butan-2-yl)-4,5,6,7,9,11-hexahydropyrazolo[4′,3′:9,10][1,6]oxaazacycloundecino[8,7,6-hi]indole-2-carboxylic Acid (Mixture of Stereoisomers)]		1.27e-05 M	> 3.3e-05 M	0.0187 µM	2.72e-05 M	1.41e-05 M	> 33 µM	26.2 µM								
COCc1nn(C)c2c1-c1cccc3c(CCCOc4cccc5ccccc45)c(C(=O)O)n(c13)CCCCCOC2 (racemic) [Example 177, (rac)-3-(methoxymethyl)-1-methyl-7-[3-(naphthalen-1-yloxy)propyl]-1,11,12,13,14,16-hexahydro-10H-pyrazolo[3′,4′:3,4][1,7]oxazacyclododecino[5,6,7-hi]indole-8-carboxylic Acid]				0.0107 µM		> 3.3e-05 M	> 33 µM	23.3 µM		> 3.3e-05 M	> 3.3e-05 M	2.14e-05 M				
COCCn1nc(C2CC2)c2c1COCCCCn1c(C(=O)O)c(CCCOc3cccc4ccccc34)c3cccc-2c31 (racemic) [Example 102, (rac)-3-Cyclopropyl-1-(2-methoxyethyl)-7-[3-(naphthalen-1-yloxy)propyl]-1,10,11,12,13,15-hexahydropyrazolo[4′,3′:9,10][1,6]oxazacycloundecino[8,7,6-hi]indole-8-carboxylic Acid]				0.00682 µM		> 3.3e-05 M	> 33 µM	8.26 µM		1.32e-05 M	> 3.3e-05 M	6.12e-06 M				
